Measurements: patent publication US20250179057A1, “MEK IMMUNE ONCOLOGY INHIBITORS AND THERAPEUTIC USES THEREOF” (Immuneering Corporation, priority 2022, published 2025)
Where “and” joins values, the source holds several entries; their conditions need not be identical. Equal entries are not always repeated.

Legend:
[1] = tested on: phospho-ERK in A549 (KRAS G12S) cells; assay: Cell-based pERK (pERK:tERK) in A549 cells; parameters: A549-pERK 10 uM, 2 h: unit not given here; settings: for A549-pERK (10 nM, 2 h): phospho- to total protein ratio normalized to DMSO control (Table 9); for pERK:tERK (10 nM 2 h A549): Phospho-ERK Screen in A549 (KRAS G12S), head 10 nM 2 h, title 10 μM for 2 hours; for A549-pERK 10 uM, 2 h: phospho- to total protein ratio normalized to DMSO control
Procedure: Media components, reagents and buffers for Western Blot: All cell culture media components were obtained from ThermoFisher Scientific. […] Laemmli sample loading 4× buffer (ThermoFisher Scientific, Cat No. NP0007). MOPS/SDS electrophoresis running buffer (GenScript, Cat No. M00138).
Subculture conditions: Adherent cells were grown to approximately 90% confluency, culture medium was aspirated and the cell layer was rinsed with PBS. […] Eight mL media was added, cells were spun down at 1000×g for 5 minutes. Cell pellet was re-suspended in 10 mL media and an appropriate volume was inoculated into a new culture flask.
Compound (drug) treatment: Cells were plated in a 6-well plate at a density of 250,000-300,000 cells/well in 3 mL media and incubated 37° C. in a humidified, 5% CO2 incubator. […] These solutions were added to the cells (3 uL/well), mixed by swirling the plate, and incubated at 37° C. in a humidified, 5% CO2 incubator for 2 hours.
Cell lysis and protein estimation: Cells were washed with PBS, and scraped in 50 μL of lysis buffer containing protease and phosphatase inhibitors. Cell lysates were stored at −20° C. Cell lysates were thawed and spun at 12,000 rpm for one minute, 3 ul of the supernatant was added to 500 μL of Coomassie blue reagent following by 500 μL of water. […] Protein standards were used (0-20 mg/mL) to calculate protein concentrations of test samples.
All samples were heated at 95° C. for 5 minutes, cooled to room temperature and spun down. […] After the run, gel was removed and protein transfer was done using iBlot for 7 minutes, as per manufacturer's recommendations. After the transfer, nitrocellulose membrane was incubated on a shaker in 5 mL of blocking buffer at room temperature for 1 hr. The blot was then incubated overnight on a shaker in 5 ml of blocking buffer containing 0.2% Tween-20 and primary antibody, at room temperature. Anti-phospho-STAT3 antibody was used at a dilution of 1:500, the other 3 primary antibodies were used at a dilution of 1:1000.
Next day, the blot was washed 3 times for 10 min each with 10 mL of TBST followed by incubation on a shaker in 5 ml of blocking buffer containing 0.2% Tween-20 and 0.5 ul of the IRDye labeled secondary antibodies, diluted 1:10000, at room temperature for 1 hr. The blot was then washed 3 times for 10 min each with 10 mL of TBST and dried between sheets of paper towels. Imaging was done using LICOR's Odyssey imaging system, quantitation was done using their software, Image Studio version 3.1.
(§1) Materials and Methods: A549 or A375 cells were seeded in 6-well plates at an appropriate seeding density on day 0. On day 2 or 3, after checking the health and confluency of cells, the media was aspirated and replaced with 1 mL media containing a predetermined concentration of compound and incubated for 2 hours. After 2 hours, the media was aspirated, and the cells washed 2 times with cold PBS. Cells were lysed on ice, with 50 uL 1×CST lysis buffer +1 mM PMSF for 5 minutes. After 5 minutes, cells were removed using a scraper and transferred to cold 1.5 mL tubes, and centrifuged for 10 min, 4° C., 14,000×g. Supernatant was gently removed and snap frozen in liquid nitrogen. Protein concentration of the lysate was determined using Bradford Reagent (analyzed using SpectraMax M2E) and diluted to 1 mg/mL or pERK or 1.5 mg/mL for pMEK analysis. […] All dilutions were in Milk-free antibody diluent.
They were grown in T75 flasks in DMEM containing 10% FBS and Pen-Strep. at 37° C. in a humidified, 5% CO2 incubator. The adherent cells were grown to about 90% confluency, culture medium was aspirated, and the cell layer was rinsed with PBS. […] Eight mL media was added, cells were spun down at 1000 g for 5 minutes. Cell pellet was re-suspended in 10 mL media and an appropriate volume was inoculated into a new culture flask. Cells were plated in a 6-well plate at a density of 250,000-300,000 cells/well in 3 mL media and incubated 37° C. in a humidified, 5% CO2 incubator.

[2] = tested on: phospho-MEK in A549 cells; assay: Cell-based pMEK (pMEK:tMEK, CRAF bypass) in A549 cells; settings: 2 h, pMEK to total MEK normalized to DMSO control
Procedure: as §1
(§2) A549 or […] cells were treated in duplicate for two hours with compounds at varying concentrations. After two hours, the cells were lysed, snap frozen, and stored at −80° C. After storage, the lysate was quantified with the Bradford assay. Before the lysates were prepared to run on the Jess, the lysates were diluted to 1 mg/mL for pERK analysis and 1.5 mg/mL pMEK analysis using quantitative Western blotting. ERK and MEK phosphorylation levels were estimated by taking the ratio of phospho-protein to total protein and normalizing to the DMSO control.
as §2

Structure (SMILES) | A549-pERK (10 nM, 2 h) [1] | A549-CRAF BP 100 nM, 2 h [2] | pERK:tERK (10 nM 2 h A549) [1] | A549-pERK 10 uM, 2 h [1]
C#CCNCc1c(Cc2cccc(NS(=O)(=O)NC)c2F)c(=O)oc2cc(OC(=O)N(C)C)ccc12 [Compound 14] | 64 | 59.1 |  | 
CNS(=O)(=O)Nc1cccc(Cc2c(CN3CCNCC3)c3cc(Cl)c(OC(=O)N(C)C)cc3oc2=O)c1F [Compound 21] | 20.4 | 47.9 (mean, n = 2) |  | 
CNS(=O)(=O)Nc1cccc(Cc2c(CNCC#N)c3ccc(OC(=O)N(C)C)cc3oc2=O)c1F [Compound 33] | 55.4 | 51.4 |  | 
CCN(CC)Cc1c(Cc2cccc(NS(=O)(=O)NC)c2F)c(=O)oc2cc(OC(=O)N(C)C)ccc12 [Compound 73] | 77.7 | 33.9 |  | 
CNS(=O)(=O)Nc1cccc(Cc2c(CN3CC(OC)C3)c3ccc(OC(=O)N(C)C)cc3oc2=O)c1F [Compound 74] | 75.3 | 59.2 |  | 
CNS(=O)(=O)Nc1cccc(Cc2c(CNCC(F)(F)F)c3ccc(OC(=O)N(C)C)cc3oc2=O)c1F [Compound 75] |  | 66.5 |  | 
CNS(=O)(=O)Nc1cccc(Cc2c(CN(C)CC(C)C)c3ccc(OC(=O)N(C)C)cc3oc2=O)c1F [Compound 78] | 78.6 | 64.2 |  | 
CNS(=O)(=O)Nc1cccc(Cc2c(CN(C)c3ccccc3)c3ccc(OC(=O)N(C)C)cc3oc2=O)c1F [Compound 79] | 49.4 | 45.2 and 64.9 |  | 
CNS(=O)(=O)Nc1cccc(Cc2c(CN(C)Cc3ccccc3)c3ccc(OC(=O)N(C)C)cc3oc2=O)c1F [Compound 80] | 56.4 | 56.1 |  | 
CC(C)CS(=O)(=O)Nc1cccc(Cc2c(CN3CCNCC3)c3cc(Cl)c(OC(=O)N(C)C)cc3oc2=O)c1F [Compound 168] |  |  | 50 (n = 2) and 53 (n = 2) | 
CNS(=O)(=O)Nc1cccc(Cc2c(CN3CC(C#N)C3)c3ccc(OC(=O)N(C)C)cc3oc2=O)c1F [Compound 172] | 111 |  |  | 
CNS(=O)(=O)Nc1cccc(Cc2c(CN3CC(C(N)=O)C3)c3ccc(OC(=O)N(C)C)cc3oc2=O)c1F [Compound 173] | 97.7 |  |  | 
CNS(=O)(=O)Nc1cccc(Cc2c(CO)c3ccc(OC(=O)N(C)C)cc3oc2=O)c1F [Compound 180] | 75 |  |  | 
CNS(=O)(=O)Nc1cccc(Cc2c(CN3CCOCC3=O)c3ccc(OC(=O)N(C)C)cc3oc2=O)c1F [Compound 181] | 100 |  |  | 22.23
CNS(=O)(=O)Nc1cccc(Cc2c(CCNCC3CC3)c3ccc(OC(=O)N(C)C)cc3oc2=O)c1F [Compound 186] | 80.1 |  |  | 0.74
CNS(=O)(=O)Nc1cccc(Cc2c(CNCC(=O)N3CCNCC3)c3ccc(OC(=O)N(C)C)cc3oc2=O)c1F [Compound 191] | 131 |  |  | 8.6
CNS(=O)(=O)Nc1cccc(Cc2c(CNc3ccc(OC)nc3)c3ccc(OC(=O)N(C)C)cc3oc2=O)c1F [Compound 193] | 90.7 |  |  | 

Structure (SMILES) | A549-pERK (10 nM, 2 h) [1] | A549-CRAF BP 100 nM, 2 h [2] | pERK:tERK (10 nM 2 h A549) [1] | A549-pERK 10 uM, 2 h [1]
CNS(=O)(=O)Nc1cccc(Cc2c(CC(=O)N3CCN(C)CC3)c3ccc(OC(=O)N(C)C)cc3oc2=O)c1F [Compound 195] | 113 |  |  | 
CNS(=O)(=O)Nc1cccc(Cc2c(CC(=O)N(C)C)c3ccc(OC(=O)N(C)C)cc3oc2=O)c1F [Compound 196] | 106 |  |  | 
CNS(=O)(=O)Nc1cccc(Cc2c(CC(=O)N(C)CC#N)c3ccc(OC(=O)N(C)C)cc3oc2=O)c1F [Compound 198] | 109 |  |  | 
CNS(=O)(=O)Nc1cccc(Cc2c(CC(=O)Nc3ccon3)c3ccc(OC(=O)N(C)C)cc3oc2=O)c1F [Compound 201] | 119 |  |  | 
CNS(=O)(=O)Nc1cccc(Cc2c(CC(=O)Nc3ccn[nH]3)c3ccc(OC(=O)N(C)C)cc3oc2=O)c1F [Compound 202] | 119 |  |  | 
CCC(=O)NCc1c(Cc2cccc(NS(=O)(=O)NC)c2F)c(=O)oc2cc(OC(=O)N(C)C)ccc12 [Compound 207] | 97.4 |  |  | 11.35
CNS(=O)(=O)Nc1cccc(Cc2c(CNC(=O)C(C)C)c3ccc(OC(=O)N(C)C)cc3oc2=O)c1F [Compound 208] | 105 |  |  | 23.64
CNS(=O)(=O)Nc1cccc(Cc2c(CNC(=O)c3c[nH]nn3)c3ccc(OC(=O)N(C)C)cc3oc2=O)c1F [Compound 211] | 121 |  |  | 70.75
CNS(=O)(=O)Nc1cccc(Cc2c(CNC(=O)C(C)(C)O)c3ccc(OC(=O)N(C)C)cc3oc2=O)c1F [Compound 212] | 100 |  |  | 13.03
CNS(=O)(=O)Nc1cccc(Cc2c(CNC(=O)c3nn[nH]n3)c3ccc(OC(=O)N(C)C)cc3oc2=O)c1F [Compound 213] | 100 |  |  | 70.14
CNS(=O)(=O)Nc1cccc(Cc2c(CC(=O)N3CC(OC)C3)c3ccc(OC(=O)N(C)C)cc3oc2=O)c1F [Compound 216] | 89.5 |  |  | 4.51
CNS(=O)(=O)Nc1cccc(Cc2c(CNCC(=O)N(C)CC#N)c3ccc(OC(=O)N(C)C)cc3oc2=O)c1F [Compound 217] | 96.7 |  |  | 11.2
C#CCNC(=O)CNCc1c(Cc2cccc(NS(=O)(=O)NC)c2F)c(=O)oc2cc(OC(=O)N(C)C)ccc12 [Compound 218] | 113 |  |  | 9.46
CNS(=O)(=O)Nc1cccc(Cc2c(CNCC(=O)N(C)c3ccccc3)c3ccc(OC(=O)N(C)C)cc3oc2=O)c1F [Compound 220] | 109 |  |  | 4.28
CNS(=O)(=O)Nc1cccc(Cc2c(CNCC(=O)Nc3ccccc3)c3ccc(OC(=O)N(C)C)cc3oc2=O)c1F [Compound 223] | 119 |  |  | 3.04
CCN(C)Cc1c(Cc2cccc(NS(=O)(=O)NC)c2F)c(=O)oc2cc(OC(=O)N(C)C)c(F)cc12 [Compound 261, 4-((ethyl(methyl)amino)methyl)-6-fluoro-3-(2-fluoro-3-((N-methylsulfamoyl)amino)benzyl)-2-oxo-2H-chromen-7-yl dimethylcarbamate] |  |  | 68 | 
